From paper PMC3492287, “Lysosomotropic Properties of Weakly Basic Anticancer Agents Promote Cancer Cell Selectivity In Vitro” (PLoS ONE, 2012)
“Also recorded” adds a separate entry of the source. Read-outs that look alike come from different tables or passages of the source.

Assays:
[1] = system: MDA-MB-231 cells with low (scrambled shRNA) vs elevated (V1E1 shRNA) lysosomal pH; test: intracellular distribution-based (IDB) selectivity from antiproliferative WST-1 IC50 values; type: cell-based, human
From the text: We subsequently evaluated the IC50 of the Hsp90 inhibitors in both cell types (Figure S4) and calculated selectivity as IC50 in MDA-MB-231 cells with low lysosomal pH divided by IC50 in MDA-MB-231 cells with elevated lysosomal pH.
MDA-MB-231 cells with elevated lysosomal pH were generated by lentiviral vector-mediated knockdown of the V-ATPase V1E1 subunit (ATP6V1E1). The lentiviral transfer vector pPGK-Neo-ATP6V1E1 encoding the target sequence 5′-[…]-3′ against the V-ATPase V1E1 subunit was obtained from Mission (Sigma, St. Louis, MO). […] After the cells adhered, 2.6 µg of vector DNA was combined with 26 µL of the lentiviral packaging mix and transfected into cells using Fugene-6 transfection reagent (Roche Diagnostics, Indianapolis, IN), according to the manufacturer's instructions. […] The virus-containing cell culture supernatants were harvested twice: once at 24 h and again at 48 h. Prior to use, the viral media was filtered through a 0.45-µm filter and added onto 70% confluent 75 cc flasks of MDA-MB-231 cells, in the presence of 8 µg/mL hexadimethrine bromide. The viruses were allowed to infect the cells for 16–18 h, after which the media containing viruses was replaced with fresh media for a further 24 h prior to analysis of knockdown of V1E1 expression. The knockdown efficiency was analyzed by Western blotting, performed as described previously. […] Anti-goat HRP-conjugated secondary antibody (Santa Cruz Biotechnology) was used at a 1∶5000 dilution, and anti-mouse HRP-conjugated secondary antibody was used at a 1∶1000 dilution.
Cell sensitivity to compounds was evaluated using the WST-1 (4-[3[(4-iodophenyl)-2-(4-nitrophenyl)-2H-5-tetrazolio]-1,3-benzene disulfonate) assay (BioAssay Systems, Hayward, CA), which was performed according to the manufacturer's instructions. Briefly, 4000 cells were seeded per well of a 96-well plate and allowed to adhere overnight. Cells were incubated in increasing concentrations (9 different concentrations ranging from 0.00001 µM to 1000 µM) of drug for a period of 72 h. At the end of the drug treatment period, 10 µL of WST-1 reagent was added per well, allowed to incubate at 37°C for 2 hours, and absorbance at 450 and 620 nm (reference) was measured using a Multiskan model MCC/340 microplate reader (ThermoElectron Corp, Hudson, NH). Cell viability as a percent of control (untreated) cells was plotted against drug concentration to generate cytotoxicity curves, which were fit to 3 or 4 parameter logistic Hill plots using SigmaPlot. IC50 values were determined from the curve fit.

[2] = parameters: method as in PMID 17163760; settings: previously measured; cited from earlier work
[3] = pKa determination by 1H NMR pH titration; type: physicochemical
Method: The pKa values for analogs 1, 2, 3, 5 and 6 (see Figure 2 for chemical structures) were measured at 37°C using ^1H NMR. To determine the pKa using this method, the chemical shifts of protons alpha to the ionizable amine were plotted against pH, yielding sigmoidal curves (Figure S1) from which pKa was derived. […] Therefore, we report a previously measured pKa value for compound 4 that was procured using an alternative approach, and we report a calculated value for compound 7 (see Materials and Methods). […] Only the higher pKa value is reported in Figure 2 because the second is too low to theoretically contribute to ion trapping in lysosomes.
All NMR solvents and reagents were obtained from Cambridge Isotope Labs (Andover, MA), unless noted otherwise. Compounds were dissolved at a 2–3 mg/mL concentration in D2O. pD measurements in D2O were performed using a MiniLab model IQ125 pH electrode (Fisher Scientific, Pittsburg, PA). pD was adjusted using NaOD (40% in D2O) or DCl (20% in D2O). ^1H NMR spectra were recorded at 37°C using a Bruker 400 MHz NMR and analyzed using the Bruker Topspin software. […] (DSS) was used as the reference peak. pD was converted to pH using the following expression: pH = 0.936pD*+0.412 [45]. The change in chemical shift of protons alpha to the amine as a function of pH yielded sigmoidal plots that were fit to a 4-parameter logistic equation using SigmaPlot (Systat Software, San Jose, CA) from which pKa was determined. The calculated pKa for compound 7 was determined using the MarvinSketch version 5.3.8. pKa plugin (www.chemaxon.com).

[4] = cited from earlier work
[5] = 1H NMR in D2O, 37°C, n = 1, for compound 5 the higher pKa, read-out: pKa

O=c1[nH]cc(F)c(=O)[nH]1 [5-fluorouracil]
IDB selectivity (IC50 low lysosomal pH / IC50 elevated lysosomal pH MDA-MB-231) [1]: ~1 | IDB selectivity (IC50 low lysosomal pH / IC50 elevated lysosomal pH MDA-MB-231) ([1]; 72 h, WST-1, n = 3): one and did not show appreciable IDB selectivity

CO[C@H]1/C=C\C=C(/C)C(=O)NC2=CC(=O)C(NCCN(C)C)=C(C[C@@H](C)C[C@H](OC)[C@H](O)[C@@H](C)/C=C(\C)[C@@H]1OC(N)=O)C2=O [17-DMAG]
alpha value [2]: 0.01

COC1C=CC=C(C)C(=O)NC2=CC(=O)C(NCCc3cccnc3)=C(CC(C)CC(OC)C(O)C(C)C=C(C)C1OC(N)=O)C2=O (centres unmarked) [Compound 1]
pKa [3, 5]: 5.8

COC1C=CC=C(C)C(=O)NC2=CC(=O)C(NCCN(C)C)=C(CC(C)CC(OC)C(O)C(C)C=C(C)C1OC(N)=O)C2=O (centres unmarked) [Compound 3]
pKa [3]: 7.8

COC1C=CC=C(C)C(=O)NC2=CC(=O)C(NCCN3CCNCC3)=C(CC(C)CC(OC)C(O)C(C)C=C(C)C1OC(N)=O)C2=O (centres unmarked) [Compound 5]
pKa [3, 5]: 9.9 | pKa ([3]; 1H NMR, 37°C, too low to contribute to ion trapping, read-out: pKa (second, lower value)): 4.2

COC1C=CC=C(C)C(=O)NC2=CC(=O)C(NCCC3CCNCC3)=C(CC(C)CC(OC)C(O)C(C)C=C(C)C1OC(N)=O)C2=O (centres unmarked) [Compound 6]
pKa [3, 5]: 10.5

COc1cccc2c1C(=O)c1c(O)c3c(c(O)c1C2=O)C[C@@](O)(C(C)=O)C[C@@H]3O[C@H]1C[C@H](N)[C@H](O)[C@H](C)O1 [daunorubicin]
IDB selectivity (IC50 low lysosomal pH / IC50 elevated lysosomal pH MDA-MB-231) [1]: significant but different degrees of IDB selectivity; also recorded: significantly higher IDB selectivity than did mitoxantrone

O=C1c2c(O)ccc(O)c2C(=O)c2c(NCCNCCO)ccc(NCCNCCO)c21 [mitoxantrone]
pKa ([4]; in Figure 6): 6 | pKa ([4]; weakly basic): 8.1 | pKa ([4]; weakly basic, listed as Mitoxantrone): ~8 | IDB selectivity (IC50 low lysosomal pH / IC50 elevated lysosomal pH MDA-MB-231) ([1]; 72 h, WST-1, n = 3): significant but different degrees of IDB selectivity | IDB selectivity (IC50 low lysosomal pH / IC50 elevated lysosomal pH MDA-MB-231) ([1]; 72 h, WST-1, n = 3, listed as Mitoxantrone): significant IDB selectivity
